Test in all cases: NCI-60 cell line screen, 48 h
The subject of experiment [1] is EKVX NSCLC.
For experiment [2], the system named is IGROV1 ovarian.
Experiment [3] concerns KM20L2 colon.
Experiment [4] relates to M19-MEL melanoma.
In experiment [5] the test system is SF-539 CNS.
Experiment [6] has as its system SN12C renal.
Experiment [7] relates to UACC-257 melanoma.
The subject of experiment [8] is NCI-H522 lung.
Experiment [9] concerns SK-OV-3 ovarian.
Experiment [10] has as its system DU-145 prostate.

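Method: 48-hour compound exposure of cells in 96-well plates, five concentrations, linear interpolation of endpoints. Abbreviation: GI50, concentration required for 50% inhibition of growth. TGI: total growth inhibition.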 Some results are limits rather than exact numbers.

Turning to `Cc1cc(=O)[nH]c(NN2C(Cl)C(=O)C2c2cccc(Cl)c2)n1` (configuration not stated), the TGI is over 100 µM in experiment [1]; 37.1 µM in experiment [2]; over 100 µM in [3]; over 100 µM in [4]; 39.4 µM in experiment [5]; 62 µM in [6]. In experiment [7], this compound came in with a TGI of over 100 µM.

Turning to `O=C1Nc2ccccc2Nc2ccncc21`, the TGI in experiment [1], in experiment [2], in [3], in experiment [4], in [8] and in experiment [5] was over 100 µM each time. Further, the TGI in experiment [9] is over 100 µM; in [6] it was over 31.6 µM; in [7], over 100 µM.

As to `CC(=O)[CH-]C(=O)c1ccccc1.CC(=O)[CH-]C(=O)c1ccccc1.C[C@]12CCC(=O)C=C1CC[C@@H]1C2CC[C@@]2(C)C1CC[C@]2(C)[O-].C[C@]12CCC(=O)C=C1CC[C@@H]1C2CC[C@@]2(C)C1CC[C@]2(C)[O-].Cl.[Ti+4]` (some centres not stated), the GI50 in [1] is 17.3 µM; in [2], 19.3 µM; in experiment [4], 26.5 µM; in experiment [8] it was 11.4 µM; in [5] it was 13.9 µM; in [9], 23.4 µM. The figures for the GI50 in [6] and in experiment [7] were 18.7 µM and 18 µM, respectively. Besides, the TGI is 44.7 µM in experiment [1]; 46.1 µM in experiment [2]; over 100 µM in [4]; 35.7 µM in experiment [8]; 29.3 µM in [5]; 53.1 µM in experiment [9]. Further, the TGI in experiment [6] was 49.5 µM; in experiment [7], 51.7 µM.

Take `CCc1nc2ccc(NCCN(C)C)c3c(=O)c4ccccc4n1c23`: the TGI in experiment [10] worked out at 3.4 µM; in experiment [1] it was 6.78 µM; in [2], 4.82 µM; in [3], 6.31 µM; in [4], 10.4 µM; in experiment [8], 4.89 µM. For the same compound, the TGI was determined as 15 µM in experiment [5], 13.3 µM in experiment [9], 10.6 µM in experiment [6] and 11.8 µM in [7].

On to `O=C1Nc2ccccc2/C1=c1\[nH]c(=O)/c(=C\c2ccc(OCc3ccccc3)cn2)[nH]c1=O`, for which the TGI in experiment [10] was over 100 µM; in experiment [1] it was over 100 µM; in experiment [2], over 100 µM; in experiment [8], over 100 µM; in experiment [5], 55.5 µM; in experiment [9], over 100 µM. Further, the TGI in [6] and in experiment [7] was over 100 µM throughout.

Turning to `COc1ccc(-n2sc3ncccc3c2=O)cc1`, the TGI in [10] was over 100 µM; in experiment [1], 28.4 µM; in [2], 61.2 µM; in [8], 46.4 µM; in [5], 37.7 µM; in experiment [9], over 100 µM. Besides, the results for the TGI in [6] and in [7] were 91.3 µM and 34.2 µM, respectively.

As for `CC(C)(C)N(Cc1ccc2c(c1)OCO2)C(=O)/C=C\Sc1ccccc1`, the TGI in experiment [10] was over 100 µM; in experiment [1], over 100 µM; in [2], over 100 µM; in [8] it was 59 µM; in experiment [5], over 100 µM; in experiment [9], over 100 µM. The TGI in experiment [6] and in [7] was over 100 µM throughout.

Consider `CNc1ncc(-c2nnnn2-c2ccccc2)c(CN(C)C)n1`, for which the TGI in experiment [10], in [1], in experiment [2], in experiment [8], in experiment [5] and in experiment [9] was over 100 µM throughout. Besides, the TGI in experiment [6] and in experiment [7] was over 100 µM throughout.

Regarding `COc1cccc(/C=N/[N-]C(N)=O)c1[O-].[Cu+2].[OH3+].c1ccc(-c2ccccn2)nc1`, the TGI in experiment [1] is over 78.2 µM; in [2] it was over 74.8 µM; in [3], over 100 µM; in [8] it was 28.4 µM; in experiment [5], 67.7 µM; in experiment [9] it was 27.3 µM. The values for the TGI in experiment [6] and in [7] were over 96.8 µM and over 100 µM, respectively.

In the case of `COc1cccc(-c2cc(=O)c3ccccc3[nH]2)c1`, the TGI in [1] is over 100 µM; in [2], over 100 µM; in experiment [3], 27.1 µM; in experiment [4] it was over 100 µM; in experiment [8], over 34.2 µM; in experiment [5] it was 18.7 µM. The TGI in experiment [9] and in experiment [6] was over 100 µM throughout.

For the compound `CCOC(=O)C1=C(C)N(c2ccc(OC)cc2)C2(O)C=CC(=O)C3=C(O)c4ccccc4C(=O)C312` (configuration not stated), the TGI in experiment [10] was determined as 28.4 µM; in [1], 23.4 µM; in experiment [2], 15.6 µM; in experiment [8] it was 11.9 µM; in experiment [5], 21.2 µM; in experiment [9], 31.1 µM. The TGI in [6] was 30.2 µM; in [7], 31.2 µM.

For `C[N+]1(CCN[N+]2(C)CCCCC2)CCc2ccccc2C1` (configuration not stated), the TGI in [10], in [1], in experiment [2], in experiment [8], in [5] and in experiment [9] was over 100 µM throughout. Moreover, the TGI in [6] and in experiment [7] was over 100 µM each time.

For the compound `CC1CC(=O)N(N(C)C)C(C#N)(C#N)C1(C#N)C#N` (configuration not stated), the TGI in experiment [10] was 32.5 µM; in [1], 57.5 µM; in [2], 40 µM; in [8] it was 7.73 µM; in experiment [5] it was 59.1 µM; in experiment [9] it was over 64.9 µM. For the same compound, the TGI stood at 37 µM in [6] and 29.8 µM in [7].

For `CCOC(=O)Cc1nc2c(N)ncnc2n1C1OC(COC(C)=O)C(OC(C)=O)C1OC(C)=O` (configuration not stated), the TGI in [10], in experiment [1], in [2], in experiment [8], in experiment [5] and in [9] was over 100 µM throughout. In addition, the TGI in experiment [6] and in experiment [7] was over 100 µM throughout.

As to `c1cnc(N2CCN(Cc3c[nH]c4ccccc34)CC2)nc1`, the TGI in experiment [10] is 94.2 µM; in [1], over 100 µM; in experiment [2], over 100 µM; in [8], over 100 µM; in experiment [5], 67 µM; in experiment [9], over 100 µM. In addition, the TGI in experiment [6] and in [7] was over 100 µM in each case.

For the compound `CCOC(=O)N(c1ccccc1)N(CC)C(=O)/C(C)=N/Nc1ccc([N+](=O)[O-])cc1`, the TGI in experiment [1] came out at 39.8 µM; in experiment [2], 33 µM; in experiment [3], 31.3 µM; in [4], 31.2 µM; in [8], 29.3 µM; in experiment [5] it was 30 µM. In addition, the TGI worked out at 37.1 µM in experiment [9], 31.4 µM in experiment [6] and 29.3 µM in [7].

Regarding `COc1cc(N(Cc2ccc3oc(=O)c(-c4ccccc4)nc3c2)Cc2ccc3oc(=O)c(-c4ccccc4)nc3c2)cc(OC)c1OC`, the TGI in experiment [10], in [1], in experiment [2], in [8], in [5] and in experiment [9] was over 10 µM throughout. Moreover, the TGI in experiment [6] and in experiment [7] was over 10 µM throughout.

Values taken from PubChem BioAssay (NCI).
